The values that follow are results of earlier work, collected in patent EP3336085A1, “PROCESS AND INTERMEDIATE FOR THE PREPARATION OF 1-(4-(2-((1-(3,4-DIFLUOROPHENYL)-1H-PYRAZOL-3-YL)METHOXY)ETHYL)PIPERAZIN-1-YL)ETHANONE” (Laboratorios del Dr. Esteve S.A., priority 2016, dated 2018).

Like-named read-outs stand apart in the source and are kept apart here.

One series deals with sigma-1 (σ1) receptor (Homo sapiens, UniProt Q99720).
Sequence of sigma-1 (σ1) receptor (Q99720 whole entry): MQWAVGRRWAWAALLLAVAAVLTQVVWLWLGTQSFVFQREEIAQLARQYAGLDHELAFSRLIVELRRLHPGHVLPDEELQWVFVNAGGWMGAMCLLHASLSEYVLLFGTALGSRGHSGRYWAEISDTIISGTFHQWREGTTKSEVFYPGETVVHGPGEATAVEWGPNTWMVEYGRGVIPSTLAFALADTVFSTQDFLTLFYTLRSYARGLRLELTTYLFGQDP

With `CC(=O)N1CCN(CCOCc2ccn(-c3ccc(F)c(F)c3)n2)CC1.Cl` [1-(4-(2-((1-(3,4-difluorophenyl)-1 H-pyrazol-3-yl)methoxy)ethyl)piperazin-1-yl)ethanone hydrochloride], the water solubility entry is given as “very soluble” (pH=2) and “very soluble” (pH=7.4). For the same compound, the “sigma-1 (σ1) receptor antagonist selectivity” value at sigma-1 (σ1) receptor is on record as “highly selective”.
